Measured values from patent US5585492A, “LTA4 Hydrolase inhibitors” (priority 1994, dated 1996).
Where two headings read alike, the source gives them in different places.

Key:
LTA4 hydrolase = settings: cited from earlier work
[1] = test system: LTB4 production in mouse blood; assay: Murine Ex Vivo LTB4 Inhibition, calcium ionophore stimulated mouse blood after oral gavage; format: in vivo; settings: oral gavage, 10 mg/kg, 1 hour
Protocol: Leukotriene A4 hydrolass inhibitor compounds of the present invention were diluted to a predetermined concentration in phosphate buffered saline containing 2% DMSO and 1% Tween 80. The compounds were administered by oral gavage to adult male outbred mice weighing approximately 20-30 gm at a dose of 10 mg/kg body weight. (Compounds given at a dose of 50 mg/kg body weight are designtated in following Table by the symbol, *.) Sixty (60) minutes after administration of an LTA4 inhibitor compound of the invention, blood was collected (into heparin-containing tubes) from the retroorbital sinus. […] The mixture was incubated for 10 minutes at 37° C. in a humidified incubator. The reaction was terminated by centrifugation (833 g, 10 minutes at 4° C.). Supernatants were analyzed for LTB4 and thromboxane by commercially available enzyme-linked immunoassays [Caymen Chemical Co., Ann Arbor, Mich.] in accordance with the manufacturer's instructions. The percent inhibition was determined by comparison to animals treated identically except that the solution admininstered by oral gavage was devoid of inhibitor compound.

[2] = test system: LTB4 production in human blood; assay: Inhibition of Calcium Ionophore-Induced LTB4 Production in Human Blood (HWB); format: cell-based; settings: Homo sapiens, read-out: Inhibition of Calcium Ionophore-Induced LTB4 Production in Human Blood IC50 HWB
[3] = target: T1, recombinant human LTA4 hydrolase (Homo sapiens, UniProt P09960); assay: Recombinant Human LTA4 Hydrolase Assay for LTA4 Hydrolase Inhibitor Activity (LTB4 by enzyme-linked immunoassay); format: biochemical; settings: read-out: Recombinant Human LTA4 Hydrolase Assay IC50 LTA4H
T1 construct: made in house; host or cells: Spodoptera frugiperda Sf-9 cells, baculovirus (AcNPV) expression vector
T1 sequence (P09960 1-611): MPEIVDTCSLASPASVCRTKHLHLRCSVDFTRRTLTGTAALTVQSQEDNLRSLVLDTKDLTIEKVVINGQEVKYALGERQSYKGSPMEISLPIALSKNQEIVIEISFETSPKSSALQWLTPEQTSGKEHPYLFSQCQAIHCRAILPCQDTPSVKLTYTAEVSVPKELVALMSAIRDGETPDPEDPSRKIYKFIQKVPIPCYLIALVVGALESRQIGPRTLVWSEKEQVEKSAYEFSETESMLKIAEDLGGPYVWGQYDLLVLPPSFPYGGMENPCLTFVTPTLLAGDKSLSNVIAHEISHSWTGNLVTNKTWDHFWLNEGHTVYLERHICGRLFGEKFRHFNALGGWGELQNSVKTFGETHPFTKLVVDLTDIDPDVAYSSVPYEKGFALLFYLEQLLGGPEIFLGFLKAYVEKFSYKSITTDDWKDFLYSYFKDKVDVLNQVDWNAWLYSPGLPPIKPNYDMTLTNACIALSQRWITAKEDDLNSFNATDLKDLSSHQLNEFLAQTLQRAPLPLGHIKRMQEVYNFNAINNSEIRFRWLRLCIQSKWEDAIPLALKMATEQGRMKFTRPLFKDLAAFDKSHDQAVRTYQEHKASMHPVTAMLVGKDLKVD
Protocol: Compounds of the present invention were tested for LTA4 hydrolase inhibitor activity against recombinant human LTA4 hydrolase (rhLTA4 H). […] Briefly, LTA4 hydrolase encoding DNA was amplified by polymerase chain reaction using a pair of oligonucleotide primers based on the nucleotide sequence from the 5'-end, and the complement of the 3'-end, of the coding region of the LTA4 hydrolase gene, the nucleotide sequence of which gene is known. […] A λgtll human placental cDNA library (Clonetech, Palo Alto, Calif.) provided the nucleic acid template.
One or more predetermined amounts of a compound of the invention were incubated in assay buffer (0.1M potassium phosphate, 5 mg/ml fatty acid free BSA, 10% DMSO, pH 7.4) for 10 minutes at room temperature with 250 ng of recombinant hLT4 H to allow binding, if any, between the enzyme and inhibitor. The stock enzyme solution was 1 mg/ml LTA4 hydrolase, 50 mM Tris, pH 8.0, 150 mM NaCl, 2.5 mM beta-mercaptoethanol, 50% glycerol. […] LTA4 (i.e., substrate) was prepared from the methyl ester of LTA4 (Biomol, Inc., Plymouth Meeting, Pa.) by treating the methyl ester with 30 molar equivalents of LiOH at room temperature for 18 hours. The LTA4 substrate in its free acid form was kept frozen at -80° C. until needed. […] Each reaction was carried out at room temperature for 10 minutes. The reaction was stopped by diluting 25 μl of the reaction mixture with 500 μl of the assay buffer without DMSO. LTB4 was quantified in the diluted sample by a commercially available enzyme-linked immunoassay [Caymen Chemical Co., Ann Arbor, Mich.] using the method recommended in the manufacturer's instructions and compared to the amount of LTB4 produced in a negative control (i.e., essentially identical conditions except without addition of an inhibitor compound). The IC50 was routinely calculated from the data produced.

[4] = human whole blood, A23187 20 mcg/ml

Structure (SMILES)	LTA4 hydrolase inhibitory activity (in words) (LTA4 hydrolase)	Murine Ex Vivo LTB4 Inhibition % I LTB4 at 1 hour after administration of 10 mg/kg [1] [%]	IC50 [2, 4] [nM]	IC50 [3] [nM]	IC50 [2] [nM]
CC(C)C[C@H](NC(=O)[C@@H](O)[C@H](N)Cc1ccccc1)C(=O)O [bestatin]	exhibit LTA4 hydrolase inhibitory activity	–	–	–	–
Cn1c(=O)c2c(ncn2CCOc2ccc(Cc3ccccc3)cc2)n(C)c1=O [Example 353]	–	0	260	73	–
CCOC(=O)CNCCCCCOc1ccc(Cc2ccccc2)cc1 [Example 321]	–	87	421	250	–
NC(=O)C1CCN(CCOc2ccc(Cc3ccccc3)cc2)CC1 [Example 242]	–	95	608	132	–
c1ccc(Cc2ccc(OCCN3CCCC3)cc2)cc1 [Example 45]	–	35	–	26	116
C[C@H](CS)C(=O)N1CCC[C@H]1C(=O)O [captopril]	exhibit LTA4 hydrolase inhibitory activity	–	–	–	–
CCOC(=O)CNCCCCOc1ccc(Cc2ccccc2)cc1 [Example 320]	–	85	354	14	–
COC(=O)CC1CCN(CCOc2ccc(Cc3ccccc3)cc2)C1 (centres unmarked) [Example 275]	–	75	146	390	–
CN(CCCOc1ccc(Cc2ccc(F)cc2)cc1)CCC(=O)O [Example 336]	–	99	187	31	–
Nc1ccc2c(c1)ncn2CCOc1ccc(Cc2ccccc2)cc1 [Example 362A]	–	28	3350	5070	–
CCOC(=O)CCNCCCCOc1ccc(Cc2ccccc2)cc1 [Example 272]	–	97	76	7	–
